# Measurements: patent US6558900B2, “Regulation of apoptosis and in vitro model for studies thereof” (Emory University, priority 1996, dated 2003)
# Tested on: CPP32
# Assay: Assay for dATP-dependent activation of CPP32 protease (cleavage of in vitro translated 35S-labeled CPP32 in HeLa S-100)
# Assay type: biochemical, hamster
# Conditions: 1 mM nucleotide, 30° C., 1 hr
# Experimental: The samples were subjected to SDS-PAGE and transferred to a nitrocellulose filter. The filter was exposed to film for 16 hours at room temperature. In FIG. 2B, a 50 μl aliquot of HeLa S-100 (250 μg) was incubated with each aliquot of 6 μl hamster liver nuclei at 37° C. for 2 hr in the presence of 1 mM indicated nucleotide. The DNA was isolated, analyzed by 2% agarose gel electrophoresis and visualized by ethidium bromide staining.
# To test the nucleotide specificity for activation of CPP32 and DNA fragmentation, HeLa cell S-100 was incubated with in vitro translated, ^35S-labeled CPP32 in the presence of 1 mM of various nucleotides (FIG. 2A).
# A PCR fragment encoding amino acids 29-277 of hamster CPP32 [Wang et al. (1996) supra] was cloned into NdeI and BamHI sites of pET 15b vector (Novagen, Madison, Wis.). The resulting fusion protein of six histidines with hamster CPP32 (amino acids 29-277) was translated in a TNT T7 transcription/translation kit (Promega, Madison, Wis.) in the presence of ^35S-methionine according to the manufacturer's instructions. The translated protein was passed through a 1 ml nickel affirmity column (Qiagen, Chatsworth, Calif.) equilibrated with buffer A. After washing the column with 10 ml of buffer A, the translated CPP32 was eluted with buffer A containing 250 mM imidazole. Human SREBP-2 was translated in a TNT SP6 transcription/translation kit as described [Wang et al. (1995) [Hua et al. (1993) Proc. Natl. Acad. Sci. USA 90, 11603-11607]. Full length human PARP cDNA [Chemey et al. (1987) Proc. Natl. Acad. Sci. USA 84, 8370-8374] was cloned into SmaI and EcoRI sites of pBK-CMV vector (Stratagene, La Jolla, Calif.) and translated in a TNT T7 transcription/translation kit [Promega, Madison, Wis.]. The translated SREBP-2 and PARP (200 μl each) were purified by passing each translation mixture through a 10-ml Sephadex G-25 gel-filtration column equilibrated with buffer A. The translated proteins contained within the exclusion volume of the column were collected.
# CPP32 was translated and purified as described above. Aliquot of 3 μl of the in vitro translated CPP32 was incubated with the indicated protein fraction, nucleotides, and 1 mM additional MgCl2 at 30° C. for 1 hour in a final volume of 20 μl of buffer A. At the end of the incubation, 7 μl of 4×SDS sample buffer was added to each reaction. After boiling for 3 min, each sample was subjected to a 15% SDS-polyacrylamide gel electrophoresis (SDS-PAGE). The gel was transferred to a nitrocellulose filter which was subsequently exposed to a Kodak X-OMAT AR X-ray film (Eastman Kodak, Rochester, N.Y.) for 16 hr at room temperature.
structure (smiles),measurement,value
"Nc1ncnc2c1ncn2[C@H]1C[C@H](O)[C@@H](COP(=O)(O)OP(=O)(O)OP(=O)(O)O)O1 [dATP, deoxyadenosine-5-triphosphate]",cleavage of 35S-labeled CPP32 (nucleotide specificity),Cleavage occurred
